Laboratory results published in patent US9527869B2, “Indolizine derivatives as phoshoinositide 3-kinases inhibitors” (CHIESI FARMACEUTICI S.P.A., priority 2014, dated 2016).
Structures can show the parent of a compound that is named as a salt.

What was measured:
Format in all cases: biochemical
PI3Kβ = molecular target: T1, PI3Kβ (Homo sapiens, UniProt P42338); assay: In vitro determination of the PI3K enzyme inhibitory activity in the cell free assay (ADP-Glo Kinase Assay), PI3Kβ; conditions: ATP 100 μM, read-out: PI3K beta inhibition
T1 construct: purchased Millipore Ltd (Billerica, Mass.)
Summary of the method: (§1)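 Human recombinant PI3K isoforms with PI/PS lipid substrates (50 μM in 2× buffer, Tris pH 7.5, DTT) were run 60 min at room temperature. Final ATP was 50 μM for α, 100 μM for β, 30 μM for γ and 80 μM for δ. ADP formation was read by ADP-Glo luminescence, and IC50 came from a four-parameter logistic fit.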

PI3Kδ = molecular target: T2, PI3Kδ (Homo sapiens, UniProt O00329); assay: In vitro determination of the PI3K enzyme inhibitory activity in the cell free assay (ADP-Glo Kinase Assay), PI3Kδ; conditions: ATP 80 μM, read-out: PI3K delta inhibition
T2 construct: purchased Millipore Ltd (Billerica, Mass.)
Summary of the method: as §1

PI3Kγ = molecular target: T3, PI3Kγ (Homo sapiens, UniProt P48736); assay: In vitro determination of the PI3K enzyme inhibitory activity in the cell free assay (ADP-Glo Kinase Assay), PI3Kγ; conditions: ATP 30 μM, read-out: PI3K gamma inhibition
T3 construct: purchased Millipore Ltd (Billerica, Mass.)
Summary of the method: as §1

PI3Kα = molecular target: T4, PI3Kα (Homo sapiens, UniProt P42336); assay: In vitro determination of the PI3K enzyme inhibitory activity in the cell free assay (ADP-Glo Kinase Assay), PI3Kα; conditions: ATP 50 μM, read-out: PI3K alpha inhibition
T4 construct: purchased Millipore Ltd (Billerica, Mass.)
Summary of the method: as §1

T4 sequence (P42336 whole entry): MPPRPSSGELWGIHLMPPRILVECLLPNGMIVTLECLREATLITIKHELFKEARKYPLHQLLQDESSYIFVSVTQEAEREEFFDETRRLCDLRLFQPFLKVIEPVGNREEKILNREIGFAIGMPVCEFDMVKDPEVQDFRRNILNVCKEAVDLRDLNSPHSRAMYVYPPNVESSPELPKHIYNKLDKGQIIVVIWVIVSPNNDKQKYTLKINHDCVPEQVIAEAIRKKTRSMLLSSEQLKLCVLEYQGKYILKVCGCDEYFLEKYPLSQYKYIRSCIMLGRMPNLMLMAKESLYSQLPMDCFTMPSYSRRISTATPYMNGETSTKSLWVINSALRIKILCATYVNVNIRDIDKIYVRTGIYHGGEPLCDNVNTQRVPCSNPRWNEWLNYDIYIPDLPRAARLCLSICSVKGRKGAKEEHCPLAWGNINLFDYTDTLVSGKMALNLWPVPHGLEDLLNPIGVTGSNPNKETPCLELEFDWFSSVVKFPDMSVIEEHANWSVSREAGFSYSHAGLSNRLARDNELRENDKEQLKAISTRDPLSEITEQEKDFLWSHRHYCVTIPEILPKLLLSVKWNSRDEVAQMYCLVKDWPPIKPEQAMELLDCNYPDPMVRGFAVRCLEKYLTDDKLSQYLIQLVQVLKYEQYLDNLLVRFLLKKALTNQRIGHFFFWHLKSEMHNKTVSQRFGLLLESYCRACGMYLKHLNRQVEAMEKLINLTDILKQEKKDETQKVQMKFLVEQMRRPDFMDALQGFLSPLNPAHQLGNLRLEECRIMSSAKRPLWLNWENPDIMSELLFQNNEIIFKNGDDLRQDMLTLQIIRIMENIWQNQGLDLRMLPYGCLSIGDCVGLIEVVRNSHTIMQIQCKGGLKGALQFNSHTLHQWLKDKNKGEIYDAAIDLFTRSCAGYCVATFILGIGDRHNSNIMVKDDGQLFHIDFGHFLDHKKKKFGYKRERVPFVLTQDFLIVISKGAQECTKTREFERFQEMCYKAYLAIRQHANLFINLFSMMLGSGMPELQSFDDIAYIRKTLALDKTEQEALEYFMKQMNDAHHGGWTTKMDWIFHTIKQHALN
T4 sequence (P27986 whole entry partner): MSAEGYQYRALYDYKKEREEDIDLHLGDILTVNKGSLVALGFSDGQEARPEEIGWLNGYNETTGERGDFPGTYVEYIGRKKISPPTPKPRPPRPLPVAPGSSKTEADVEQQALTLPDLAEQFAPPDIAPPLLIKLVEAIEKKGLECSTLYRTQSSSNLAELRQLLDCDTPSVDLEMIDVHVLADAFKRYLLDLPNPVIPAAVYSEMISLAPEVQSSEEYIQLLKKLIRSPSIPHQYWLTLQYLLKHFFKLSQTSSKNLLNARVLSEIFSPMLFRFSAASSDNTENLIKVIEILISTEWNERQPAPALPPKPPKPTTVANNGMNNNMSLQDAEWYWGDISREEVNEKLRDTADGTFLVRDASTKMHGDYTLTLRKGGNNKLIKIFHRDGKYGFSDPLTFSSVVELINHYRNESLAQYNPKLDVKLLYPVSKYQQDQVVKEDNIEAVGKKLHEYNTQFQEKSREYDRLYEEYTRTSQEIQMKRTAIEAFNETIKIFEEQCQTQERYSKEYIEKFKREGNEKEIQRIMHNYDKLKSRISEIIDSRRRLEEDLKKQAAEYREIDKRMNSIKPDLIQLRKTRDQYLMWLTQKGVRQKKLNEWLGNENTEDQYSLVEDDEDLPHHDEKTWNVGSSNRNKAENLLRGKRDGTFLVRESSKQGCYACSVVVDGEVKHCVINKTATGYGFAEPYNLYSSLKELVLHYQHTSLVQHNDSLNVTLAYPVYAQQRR
T3 sequence (P48736 whole entry): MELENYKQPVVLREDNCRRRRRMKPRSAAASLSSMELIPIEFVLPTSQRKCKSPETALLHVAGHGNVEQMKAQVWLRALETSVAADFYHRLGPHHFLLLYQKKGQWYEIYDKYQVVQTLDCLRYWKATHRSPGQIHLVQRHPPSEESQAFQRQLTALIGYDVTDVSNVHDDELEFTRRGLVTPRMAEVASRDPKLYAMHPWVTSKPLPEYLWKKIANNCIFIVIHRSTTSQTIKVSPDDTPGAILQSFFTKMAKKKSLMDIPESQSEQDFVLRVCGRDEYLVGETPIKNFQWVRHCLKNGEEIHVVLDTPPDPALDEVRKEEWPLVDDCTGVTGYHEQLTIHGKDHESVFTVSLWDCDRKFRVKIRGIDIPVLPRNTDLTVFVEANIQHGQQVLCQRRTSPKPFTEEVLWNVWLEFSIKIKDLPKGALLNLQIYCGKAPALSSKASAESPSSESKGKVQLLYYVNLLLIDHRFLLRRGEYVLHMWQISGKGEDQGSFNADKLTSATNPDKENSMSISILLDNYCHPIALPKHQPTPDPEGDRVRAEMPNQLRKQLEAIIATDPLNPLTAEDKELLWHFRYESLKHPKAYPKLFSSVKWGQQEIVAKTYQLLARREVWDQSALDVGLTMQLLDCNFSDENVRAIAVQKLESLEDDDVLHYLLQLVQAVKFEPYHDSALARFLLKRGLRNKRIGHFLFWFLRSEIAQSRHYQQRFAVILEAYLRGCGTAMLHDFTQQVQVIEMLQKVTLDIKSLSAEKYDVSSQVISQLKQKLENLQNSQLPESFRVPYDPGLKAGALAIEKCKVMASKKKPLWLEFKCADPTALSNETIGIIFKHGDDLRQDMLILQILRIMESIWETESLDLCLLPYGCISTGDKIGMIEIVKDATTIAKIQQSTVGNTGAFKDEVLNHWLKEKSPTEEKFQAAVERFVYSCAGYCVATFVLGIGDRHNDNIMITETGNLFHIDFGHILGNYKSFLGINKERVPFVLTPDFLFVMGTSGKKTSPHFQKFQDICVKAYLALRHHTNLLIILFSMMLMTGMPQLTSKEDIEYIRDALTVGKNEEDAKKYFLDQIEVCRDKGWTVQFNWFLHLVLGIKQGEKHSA
T2 sequence (O00329 whole entry): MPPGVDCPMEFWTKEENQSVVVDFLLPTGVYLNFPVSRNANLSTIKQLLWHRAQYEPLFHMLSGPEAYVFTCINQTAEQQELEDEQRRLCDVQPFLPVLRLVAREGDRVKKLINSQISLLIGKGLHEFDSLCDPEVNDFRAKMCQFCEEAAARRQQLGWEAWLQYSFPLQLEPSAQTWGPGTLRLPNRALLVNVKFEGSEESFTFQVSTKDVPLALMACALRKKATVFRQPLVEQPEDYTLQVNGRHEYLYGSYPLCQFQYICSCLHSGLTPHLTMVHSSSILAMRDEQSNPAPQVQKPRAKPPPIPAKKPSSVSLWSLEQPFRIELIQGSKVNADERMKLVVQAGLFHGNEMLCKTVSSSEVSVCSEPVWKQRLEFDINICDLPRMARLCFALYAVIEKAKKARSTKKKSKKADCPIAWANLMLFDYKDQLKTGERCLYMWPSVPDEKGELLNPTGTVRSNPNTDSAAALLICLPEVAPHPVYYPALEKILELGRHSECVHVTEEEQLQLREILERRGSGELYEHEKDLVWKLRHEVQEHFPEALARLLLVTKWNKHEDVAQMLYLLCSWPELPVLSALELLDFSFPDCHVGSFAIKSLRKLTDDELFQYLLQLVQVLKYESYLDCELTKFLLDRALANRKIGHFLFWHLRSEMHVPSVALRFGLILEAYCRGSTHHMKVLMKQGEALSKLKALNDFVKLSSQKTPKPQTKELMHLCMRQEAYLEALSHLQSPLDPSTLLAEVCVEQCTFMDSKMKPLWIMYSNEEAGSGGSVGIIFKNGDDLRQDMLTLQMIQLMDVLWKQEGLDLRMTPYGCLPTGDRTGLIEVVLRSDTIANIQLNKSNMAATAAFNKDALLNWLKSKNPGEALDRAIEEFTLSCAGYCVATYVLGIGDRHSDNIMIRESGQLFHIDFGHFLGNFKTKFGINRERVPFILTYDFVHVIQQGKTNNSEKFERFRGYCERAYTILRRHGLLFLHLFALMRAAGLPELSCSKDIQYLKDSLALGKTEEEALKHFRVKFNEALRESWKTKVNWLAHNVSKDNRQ
T2 sequence (P27986 whole entry partner): as the sequence (P27986 whole entry partner) above
T1 sequence (P42338 whole entry): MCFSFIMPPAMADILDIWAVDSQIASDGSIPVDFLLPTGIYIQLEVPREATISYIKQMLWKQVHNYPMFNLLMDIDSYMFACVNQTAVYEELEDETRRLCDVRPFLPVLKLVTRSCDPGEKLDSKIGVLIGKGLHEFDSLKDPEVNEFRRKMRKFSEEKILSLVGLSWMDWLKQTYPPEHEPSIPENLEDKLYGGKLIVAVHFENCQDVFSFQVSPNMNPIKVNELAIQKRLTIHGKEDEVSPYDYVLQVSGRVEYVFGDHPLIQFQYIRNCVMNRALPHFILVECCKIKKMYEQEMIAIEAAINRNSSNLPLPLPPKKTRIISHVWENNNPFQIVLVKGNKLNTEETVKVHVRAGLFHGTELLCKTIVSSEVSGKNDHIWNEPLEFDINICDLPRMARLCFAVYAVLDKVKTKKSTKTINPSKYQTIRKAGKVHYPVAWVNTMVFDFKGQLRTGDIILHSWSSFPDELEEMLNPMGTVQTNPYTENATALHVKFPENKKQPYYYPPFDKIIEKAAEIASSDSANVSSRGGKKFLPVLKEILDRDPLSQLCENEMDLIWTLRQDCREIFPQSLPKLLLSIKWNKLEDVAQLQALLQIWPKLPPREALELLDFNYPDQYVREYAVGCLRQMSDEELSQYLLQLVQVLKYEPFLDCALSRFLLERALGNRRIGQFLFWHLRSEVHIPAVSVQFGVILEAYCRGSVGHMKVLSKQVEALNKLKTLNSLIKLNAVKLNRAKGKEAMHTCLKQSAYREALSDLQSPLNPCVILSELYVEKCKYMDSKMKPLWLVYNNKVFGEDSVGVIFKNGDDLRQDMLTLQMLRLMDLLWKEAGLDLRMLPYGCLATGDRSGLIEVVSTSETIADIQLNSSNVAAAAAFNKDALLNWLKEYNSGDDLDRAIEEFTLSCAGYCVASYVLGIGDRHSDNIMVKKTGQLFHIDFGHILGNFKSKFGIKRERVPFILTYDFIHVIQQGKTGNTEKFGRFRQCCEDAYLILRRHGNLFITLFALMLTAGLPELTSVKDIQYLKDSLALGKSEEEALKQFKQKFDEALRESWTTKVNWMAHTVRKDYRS
T1 sequence (P27986 whole entry partner): as the sequence (P27986 whole entry partner) above

Row | SMILES | IC50 (PI3Kβ) | IC50 (PI3Kδ) | IC50 (PI3Kγ) | IC50 (PI3Kα)
1 | CC(Nc1ncnc(N)c1C#N)c1cc2ccccn2c1-c1ccsc1 (centres unmarked) [Example 38, 4-amino-6-({1-[3-(thiophen-3-yl)indolizin-2-yl]ethyl}amino)pyrimidine-5-carbonitrile] | > 1 µM | 0.01 to 1 µM | > 1 µM | > 1 µM
2 | CC(Nc1ncnc(N)c1C#N)c1cc2c(F)cccn2c1-c1ccccn1 (centres unmarked) [Example 39, 4-amino-6-({1-[8-fluoro-3-(pyridin-2-yl)indolizin-2-yl]ethyl}amino)pyrimidine-5-carbonitrile] | 0.01 to 1 µM | < 0.01 µM | > 1 µM | > 1 µM
3 | Cc1cccc2cc(C(C)Nc3ncnc(N)c3C#N)c(-c3ccccn3)n12 (centres unmarked) [Example 40, 4-amino-6-({1-[5-methyl-3-(pyridin-2-yl)indolizin-2-yl]ethyl}amino)pyrimidine-5-carbonitrile] | > 1 µM | < 0.01 µM | > 1 µM | > 1 µM
4 | Cc1cccn2c(-c3ccccn3)c(C(C)Nc3ncnc(N)c3C#N)cc12 (centres unmarked) [Example 41, 4-amino-6-({1-[8-methyl-3-(pyridin-2-yl)indolizin-2-yl]ethyl}amino)pyrimidine-5-carbonitrile] | > 1 µM | 0.01 to 1 µM | > 1 µM | > 1 µM
5 | CC(Nc1ncnc(N)c1C#N)c1cc2ccccn2c1C1=CCOCC1 (centres unmarked) [Example 42, 4-amino-6-({1-[3-(3,6-dihydro-2H-pyran-4-yl)indolizin-2-yl]ethyl}amino)pyrimidine-5-carbonitrile] | 0.01 to 1 µM | 0.01 to 1 µM | > 1 µM | > 1 µM
6 | CCCC#Cc1c(C(C)Nc2ncnc(N)c2C#N)cc2ccccn12 (centres unmarked) [Example 43, 4-amino-6-({1-[3-(pent-1-yn-1-yl)indolizin-2-yl]ethyl}amino)pyrimidine-5-carbonitrile] | 0.01 to 1 µM | 0.01 to 1 µM | > 1 µM | > 1 µM
7 | CCC(Nc1ncnc(N)c1C#N)c1cc2ccccn2c1-c1ccccn1 (centres unmarked) [Example 44, 4-amino-6-({1-[3-(pyridin-2-yl)indolizin-2-yl]propyl}amino)pyrimidine-5-carbonitrile] | > 1 µM | 0.01 to 1 µM | 0.01 to 1 µM | > 1 µM
8 | CC(Nc1ncnc(N)c1C#N)c1cc2ccccn2c1C1=CCNCC1 (centres unmarked) [Example 45, 4-amino-6-({1-[3-(1,2,3,6-tetrahydropyridin-4-yl)indolizin-2-yl]ethyl}amino)pyrimidine-5-carbonitrile] | 0.01 to 1 µM | 0.01 to 1 µM | > 1 µM | > 1 µM
9 | CC(Nc1ncnc(N)c1C#N)c1cc2ccccn2c1C#CCO (centres unmarked) [Example 46, 4-amino-6-({1-[3-(3-hydroxyprop-1-yn-1-yl)indolizin-2-yl]ethyl}amino)pyrimidine-5-carbonitrile] | 0.01 to 1 µM | 0.01 to 1 µM | 0.01 to 1 µM | > 1 µM
10 | CC(Nc1ncnc(N)c1C=O)c1cc2ccccn2c1-c1ccccn1 (centres unmarked) [Example 47, 4-amino-6-({1-[3-(pyridin-2-yl)indolizin-2-yl]ethyl}amino)pyrimidine-5-carbaldehyde] | 0.01 to 1 µM | 0.01 to 1 µM | > 1 µM | > 1 µM
11 | CC(Nc1ncnc(N)c1Br)c1cc2ccccn2c1-c1ccccn1 (centres unmarked) [Example 48, 5-bromo-4-N-{1-[3-(pyridin-2-yl)indolizin-2-yl]ethyl}pyrimidine-4,6-diamine] | > 1 µM | 0.01 to 1 µM | > 1 µM | > 1 µM
12 | CC(Nc1ncnc(N)c1C(F)(F)F)c1cc2ccccn2c1-c1ccccn1 (centres unmarked) [Example 49, 4-N-{1-[3-(pyridin-2-yl)indolizin-2-yl]ethyl}-5-(trifluoromethyl)pyrimidine-4,6-diamine] | > 1 µM | 0.01 to 1 µM | > 1 µM | > 1 µM
13 | Cc1c(N)ncnc1NC(C)c1cc2ccccn2c1-c1ccccn1 (centres unmarked) [Example 50, 5-methyl-4-N-{1-[3-(pyridin-2-yl)indolizin-2-yl]ethyl}pyrimidine-4,6-diamine] | > 1 µM | 0.01 to 1 µM | > 1 µM | > 1 µM
14 | CNC(=O)c1c(N)ncnc1NC(C)c1cc2ccccn2c1-c1ccccn1 (centres unmarked) [Example 51, 4-amino-N-methyl-6-({1-[3-(pyridin-2-yl)indolizin-2-yl]ethyl}amino)pyrimidine-5-carboxamide] | > 1 µM | 0.01 to 1 µM | > 1 µM | > 1 µM
15 | CC(Nc1ncnc(N)c1C(N)=O)c1cc2ccccn2c1-c1ccccn1 (centres unmarked) [Example 52, 4-amino-6-({1-[3-(pyridin-2-yl)indolizin-2-yl]ethyl}amino)pyrimidine-5-carboxamide] | > 1 µM | 0.01 to 1 µM | > 1 µM | > 1 µM
16 | CC(Nc1ncnc(N)c1C(=O)O)c1cc2ccccn2c1-c1ccccn1 (centres unmarked) [Example 53, 4-amino-6-({1-[3-(pyridin-2-yl)indolizin-2-yl]ethyl}amino)pyrimidine-5-carboxylic acid formate] | > 1 µM | > 1 µM | > 1 µM | > 1 µM
17 | CC(NC(=O)c1nccnc1N)c1cc2ccccn2c1-c1ccccn1 (centres unmarked) [Example 54, 3-amino-N-{1-[3-(pyridin-2-yl)indolizin-2-yl]ethyl}pyrazine-2-carboxamide] | > 1 µM | > 1 µM | > 1 µM | > 1 µM
18 | Nc1nccnc1C(=O)NCc1cn2ccccc2c1-c1ccccn1 [Example 55, 3-amino-N-{[1-(pyridin-2-yl)indolizin-2-yl]methyl}pyrazine-2-carboxamide] | > 1 µM | > 1 µM | > 1 µM | > 1 µM
19 | CC(Nc1ncnc(N)c1CO)c1cc2ccccn2c1-c1ccccn1 (centres unmarked) [Example 56, [4-amino-6-({1-[3-(pyridin-2-yl)indolizin-2-yl]ethyl}amino)pyrimidin-5-yl]methanol] | > 1 µM | > 1 µM | > 1 µM | > 1 µM
20 | CC(Nc1ncnc(N)c1CN1CCOCC1)c1cc2ccccn2c1-c1ccccn1 (centres unmarked) [Example 57, 5-(morpholin-4-ylmethyl)-4-N-{1-[3-(pyridin-2-yl)indolizin-2-yl]ethyl}pyrimidine-4,6-diamine] | > 1 µM | > 1 µM | > 1 µM | > 1 µM
21 | CC(Nc1ncnc(N)c1/C=N/O)c1cc2ccccn2c1-c1ccccn1 (centres unmarked) [Example 58, 5-[(1E)-(hydroxyimino)methyl]-4-N-{1-[3-(pyridin-2-yl)indolizin-2-yl]ethyl}pyrimidine-4,6-diamine] | 0.01 to 1 µM | < 0.01 µM | > 1 µM | > 1 µM
22 | CC(Nc1ncnc(N)c1C#CCO)c1cc2ccccn2c1-c1ccccn1 (centres unmarked) [Example 59, 3-[4-amino-6-({1-[3-(pyridin-2-yl)indolizin-2-yl]ethyl}amino)pyrimidin-5-yl]prop-2-yn-1-ol] | > 1 µM | 0.01 to 1 µM | > 1 µM | > 1 µM
23 | CC(c1cc2ccccn2c1-c1ccccn1)n1nc(-c2ccccc2)c2c(N)ncnc21 (centres unmarked) [Example 60, 3-phenyl-1-{1-[3-(pyridin-2-yl)indolizin-2-yl]ethyl}-1H-pyrazolo[3,4-d]pyrimidin-4-amine] | > 1 µM | 0.01 to 1 µM | > 1 µM | > 1 µM
24 | CC(c1cc2ccccn2c1-c1ccccn1)n1nc(-c2cccc(O)c2)c2c(N)ncnc21 (centres unmarked) [Example 61, 3-(4-amino-1-{1-[3-(pyridin-2-yl)indolizin-2-yl]ethyl}-1H-pyrazolo[3,4-d]pyrimidin-3-yl)phenol] | 0.01 to 1 µM | 0.01 to 1 µM | 0.01 to 1 µM | > 1 µM
25 | COc1cc(F)cc(-c2nn(C(C)c3cc4ccccn4c3-c3ccccn3)c3ncnc(N)c23)c1 (centres unmarked) [Example 62, 3-(3-fluoro-5-methoxyphenyl)-1-{1-[3-(pyridin-2-yl)indolizin-2-yl]ethyl}-1H-pyrazolo[3,4-d]pyrimidin-4-amine] | > 1 µM | 0.01 to 1 µM | > 1 µM | > 1 µM
26 | CC(=O)Nc1cccc(-c2nn(C(C)c3cc4ccccn4c3-c3ccccn3)c3ncnc(N)c23)c1 (centres unmarked) [Example 63, N-[3-(4-amino-1-{1-[3-(pyridin-2-yl)indolizin-2-yl]ethyl}-1H-pyrazolo[3,4-d]pyrimidin-3-yl)phenyl]acetamide] | > 1 µM | > 1 µM | > 1 µM | > 1 µM
27 | CC(c1cc2ccccn2c1-c1ccccn1)n1nc(-c2cccc(CO)c2)c2c(N)ncnc21 (centres unmarked) [Example 64, [3-(4-amino-1-{1-[3-(pyridin-2-yl)indolizin-2-yl]ethyl}-1H-pyrazolo[3,4-d]pyrimidin-3-yl)phenyl]methanol] | > 1 µM | 0.01 to 1 µM | > 1 µM | > 1 µM
28 | CC(c1cc2ccccn2c1-c1ccccn1)n1nc(-c2cc(O)cc(C(F)(F)F)c2)c2c(N)ncnc21 (centres unmarked) [Example 65, 3-(4-amino-1-{1-[3-(pyridin-2-yl)indolizin-2-yl]ethyl}-1H-pyrazolo[3,4-d]pyrimidin-3-yl)-5-(trifluoromethyl)phenol] | 0.01 to 1 µM | < 0.01 µM | 0.01 to 1 µM | > 1 µM
29 | CC(c1cc2ccccn2c1-c1ccccn1)n1nc(-c2cccc(F)c2)c2c(N)ncnc21 (centres unmarked) [Example 66, 3-(3-fluorophenyl)-1-{1-[3-(pyridin-2-yl)indolizin-2-yl]ethyl}-1H-pyrazolo[3,4-d]pyrimidin-4-amine] | 0.01 to 1 µM | 0.01 to 1 µM | > 1 µM | > 1 µM
